Measurements as given in the kinase profiling compilation of Christmann-Franck et al. (2016).

Columns and labels:
Assay in all cases: Caliper, Mobility shift assay off-chip
CSNK1G2 (human) = CSNK1G2 (human) (UniProt P78368)
PDGFRA (human) = PDGFRA (human) (UniProt P16234)
PBK (human) = PBK (human) (UniProt Q96KB5)
EPHA6 (human) = EPHA6 (human) (UniProt Q9UF33)
CHUK (human) = CHUK (human) (UniProt O15111)
HIPK4 (human) = HIPK4 (human) (UniProt Q8NE63)
TBK1 (human) = TBK1 (human) (UniProt Q9UHD2)
SIK2 (human) = SIK2 (human) (UniProt Q9H0K1)
CAMK2G (human) = CAMK2G (human) (UniProt Q13555)
MAPK11 (human) = MAPK11 (human) (UniProt Q15759)
TAOK2 (human) = TAOK2 (human) (UniProt Q9UL54)
ITK (human) = ITK (human) (UniProt Q08881)
PRKACG (human) = PRKACG (human) (UniProt P22612)
FER (human) = FER (human) (UniProt P16591)
EPHA8 (human) = EPHA8 (human) (UniProt P29322)
BMX (human) = BMX (human) (UniProt P51813)
EPHB2 (human) = EPHB2 (human) (UniProt P29323)
IKBKB (human) = IKBKB (human) (UniProt O14920)
PRKCG (human) = PRKCG (human) (UniProt P05129)
INSR (human) = INSR (human) (UniProt P06213)
BRSK2 (human) = BRSK2 (human) (UniProt Q8IWQ3)
AXL (human) = AXL (human) (UniProt P30530)
AURKA (human) = AURKA (human) (UniProt O14965)
MARK2 (human) = MARK2 (human) (UniProt Q7KZI7)
PAK3 (human) = PAK3 (human) (UniProt O75914)
PAK7 (human) = PAK7 (human) (UniProt Q9P286)
FGFR1 (human) = FGFR1 (human) (UniProt P11362)
INSRR (human) = INSRR (human) (UniProt P14616)
ERBB2 (human) = ERBB2 (human) (UniProt P04626)
MAP4K4 (human) = MAP4K4 (human) (UniProt O95819)
EPHB3 (human) = EPHB3 (human) (UniProt P54753)
PAK2 (human) = PAK2 (human) (UniProt Q13177)
BLK (human) = BLK (human) (UniProt P51451)
CSF1R (human) = CSF1R (human) (UniProt P07333)
DDR2 (human) = DDR2 (human) (UniProt Q16832)

Sequence of FER (human) (P16591 whole entry, looked up): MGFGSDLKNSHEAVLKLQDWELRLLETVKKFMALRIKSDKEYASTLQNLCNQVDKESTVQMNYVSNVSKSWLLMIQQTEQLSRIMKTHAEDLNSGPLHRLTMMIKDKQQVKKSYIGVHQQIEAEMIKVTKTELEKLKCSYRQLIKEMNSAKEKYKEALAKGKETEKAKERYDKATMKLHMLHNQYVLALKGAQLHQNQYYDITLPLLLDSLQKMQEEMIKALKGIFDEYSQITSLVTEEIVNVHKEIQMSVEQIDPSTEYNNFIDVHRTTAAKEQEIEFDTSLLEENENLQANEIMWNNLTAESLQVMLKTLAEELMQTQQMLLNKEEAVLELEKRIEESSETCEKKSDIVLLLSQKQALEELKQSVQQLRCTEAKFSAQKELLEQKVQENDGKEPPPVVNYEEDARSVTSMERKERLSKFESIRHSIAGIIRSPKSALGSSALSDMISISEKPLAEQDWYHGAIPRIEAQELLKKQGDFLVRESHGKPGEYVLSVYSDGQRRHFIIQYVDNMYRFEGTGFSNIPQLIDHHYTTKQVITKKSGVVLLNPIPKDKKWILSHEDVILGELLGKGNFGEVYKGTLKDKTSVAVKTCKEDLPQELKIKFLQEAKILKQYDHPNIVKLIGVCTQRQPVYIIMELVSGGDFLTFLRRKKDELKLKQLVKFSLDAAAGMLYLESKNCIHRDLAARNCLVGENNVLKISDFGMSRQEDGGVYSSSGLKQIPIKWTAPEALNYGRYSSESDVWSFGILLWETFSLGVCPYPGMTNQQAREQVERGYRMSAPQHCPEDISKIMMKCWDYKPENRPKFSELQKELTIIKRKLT
Sequence of ITK (human) (Q08881 whole entry, looked up): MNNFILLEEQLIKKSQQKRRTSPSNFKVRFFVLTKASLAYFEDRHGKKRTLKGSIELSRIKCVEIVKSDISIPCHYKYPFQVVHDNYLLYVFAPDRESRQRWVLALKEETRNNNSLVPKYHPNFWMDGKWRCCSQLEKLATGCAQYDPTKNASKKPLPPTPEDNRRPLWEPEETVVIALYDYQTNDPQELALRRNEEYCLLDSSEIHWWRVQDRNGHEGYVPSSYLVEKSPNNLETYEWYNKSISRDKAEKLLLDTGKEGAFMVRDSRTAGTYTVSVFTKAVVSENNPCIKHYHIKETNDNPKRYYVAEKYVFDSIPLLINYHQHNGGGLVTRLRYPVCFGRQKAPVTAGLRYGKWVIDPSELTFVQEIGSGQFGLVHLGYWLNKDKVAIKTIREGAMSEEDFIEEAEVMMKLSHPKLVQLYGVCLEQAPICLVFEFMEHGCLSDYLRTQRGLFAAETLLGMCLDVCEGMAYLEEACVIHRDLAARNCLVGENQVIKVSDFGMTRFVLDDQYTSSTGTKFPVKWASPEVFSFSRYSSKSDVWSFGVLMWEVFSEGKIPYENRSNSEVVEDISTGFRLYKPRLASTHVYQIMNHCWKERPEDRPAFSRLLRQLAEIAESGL
Sequence of EPHA6 (human) (Q9UF33 whole entry, looked up): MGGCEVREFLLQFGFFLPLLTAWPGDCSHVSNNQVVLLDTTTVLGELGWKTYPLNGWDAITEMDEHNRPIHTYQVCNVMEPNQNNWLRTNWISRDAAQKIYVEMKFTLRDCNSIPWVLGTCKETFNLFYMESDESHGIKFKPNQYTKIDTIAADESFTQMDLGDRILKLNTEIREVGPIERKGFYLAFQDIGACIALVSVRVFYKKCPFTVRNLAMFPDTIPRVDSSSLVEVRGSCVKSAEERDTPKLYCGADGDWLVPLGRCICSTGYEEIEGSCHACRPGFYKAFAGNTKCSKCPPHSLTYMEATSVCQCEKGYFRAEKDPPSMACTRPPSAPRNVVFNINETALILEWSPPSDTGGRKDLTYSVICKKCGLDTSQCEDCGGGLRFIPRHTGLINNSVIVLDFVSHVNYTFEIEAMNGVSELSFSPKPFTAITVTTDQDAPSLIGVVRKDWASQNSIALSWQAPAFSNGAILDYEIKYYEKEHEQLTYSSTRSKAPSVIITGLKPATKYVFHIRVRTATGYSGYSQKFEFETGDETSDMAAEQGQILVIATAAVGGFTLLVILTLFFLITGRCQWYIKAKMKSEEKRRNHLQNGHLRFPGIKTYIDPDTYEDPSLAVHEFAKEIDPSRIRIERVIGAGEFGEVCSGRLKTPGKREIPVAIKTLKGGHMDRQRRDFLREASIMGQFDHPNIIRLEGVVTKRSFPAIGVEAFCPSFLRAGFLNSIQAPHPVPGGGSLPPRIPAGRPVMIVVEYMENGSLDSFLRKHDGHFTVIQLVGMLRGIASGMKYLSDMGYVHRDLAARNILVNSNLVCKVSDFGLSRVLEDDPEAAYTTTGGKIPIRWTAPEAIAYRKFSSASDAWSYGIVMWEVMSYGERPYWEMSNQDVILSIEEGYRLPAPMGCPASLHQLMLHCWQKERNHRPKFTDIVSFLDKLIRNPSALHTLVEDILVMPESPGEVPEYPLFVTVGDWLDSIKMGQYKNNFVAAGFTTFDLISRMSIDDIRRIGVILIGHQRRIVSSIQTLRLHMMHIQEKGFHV
Sequence of EPHB3 (human) (P54753 whole entry, looked up): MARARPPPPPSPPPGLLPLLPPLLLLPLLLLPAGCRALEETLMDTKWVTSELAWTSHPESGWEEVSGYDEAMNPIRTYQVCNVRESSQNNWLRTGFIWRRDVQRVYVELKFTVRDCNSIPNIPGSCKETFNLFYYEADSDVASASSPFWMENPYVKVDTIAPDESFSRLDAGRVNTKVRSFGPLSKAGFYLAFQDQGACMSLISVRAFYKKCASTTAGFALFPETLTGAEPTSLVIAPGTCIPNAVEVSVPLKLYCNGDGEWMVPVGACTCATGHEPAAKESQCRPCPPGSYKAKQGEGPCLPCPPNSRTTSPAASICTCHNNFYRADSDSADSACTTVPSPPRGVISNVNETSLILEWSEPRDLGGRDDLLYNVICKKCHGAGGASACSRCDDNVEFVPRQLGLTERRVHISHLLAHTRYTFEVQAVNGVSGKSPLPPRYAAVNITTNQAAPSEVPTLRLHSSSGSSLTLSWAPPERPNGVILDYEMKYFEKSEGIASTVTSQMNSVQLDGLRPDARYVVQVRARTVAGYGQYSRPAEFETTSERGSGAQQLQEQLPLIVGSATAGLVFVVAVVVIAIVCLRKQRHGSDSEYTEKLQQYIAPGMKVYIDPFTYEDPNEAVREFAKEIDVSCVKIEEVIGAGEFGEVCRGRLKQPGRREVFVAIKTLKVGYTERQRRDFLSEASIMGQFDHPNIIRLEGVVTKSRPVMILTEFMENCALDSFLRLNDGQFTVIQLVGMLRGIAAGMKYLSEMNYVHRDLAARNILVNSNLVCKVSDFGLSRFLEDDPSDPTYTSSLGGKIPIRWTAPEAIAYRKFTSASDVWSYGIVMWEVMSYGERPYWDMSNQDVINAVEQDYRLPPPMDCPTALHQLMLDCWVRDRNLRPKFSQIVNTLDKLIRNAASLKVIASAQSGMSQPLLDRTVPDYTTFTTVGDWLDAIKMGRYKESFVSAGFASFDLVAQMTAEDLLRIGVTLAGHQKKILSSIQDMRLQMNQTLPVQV
Sequence of AURKA (human) (O14965 whole entry, looked up): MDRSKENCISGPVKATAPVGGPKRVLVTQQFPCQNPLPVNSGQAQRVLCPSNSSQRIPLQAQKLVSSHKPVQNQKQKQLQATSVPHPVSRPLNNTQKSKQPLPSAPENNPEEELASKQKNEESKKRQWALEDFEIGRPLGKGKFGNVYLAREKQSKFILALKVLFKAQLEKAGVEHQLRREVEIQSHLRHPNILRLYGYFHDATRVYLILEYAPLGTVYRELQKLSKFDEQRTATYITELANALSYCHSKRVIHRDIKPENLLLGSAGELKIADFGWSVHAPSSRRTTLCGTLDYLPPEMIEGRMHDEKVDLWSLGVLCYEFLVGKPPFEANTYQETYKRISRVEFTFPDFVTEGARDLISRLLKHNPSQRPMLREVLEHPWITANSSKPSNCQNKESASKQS
Sequence of PRKACG (human) (P22612 whole entry, looked up): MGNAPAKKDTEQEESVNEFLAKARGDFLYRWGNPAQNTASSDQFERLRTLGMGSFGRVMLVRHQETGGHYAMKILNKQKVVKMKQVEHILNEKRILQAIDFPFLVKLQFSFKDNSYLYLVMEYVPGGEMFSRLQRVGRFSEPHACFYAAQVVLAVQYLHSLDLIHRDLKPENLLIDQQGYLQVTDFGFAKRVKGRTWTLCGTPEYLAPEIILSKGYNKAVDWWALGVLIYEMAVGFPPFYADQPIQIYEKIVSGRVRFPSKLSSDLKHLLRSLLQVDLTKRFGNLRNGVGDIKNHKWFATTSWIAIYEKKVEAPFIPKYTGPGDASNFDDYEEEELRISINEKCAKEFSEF

CNC(=O)c1cc(Oc2ccc(NC(=O)Nc3ccc(Cl)c(C(F)(F)F)c3)cc2)ccn1
inhibition (CSNK1G2 (human); compound 0.02 µM): -18.7%
inhibition (CSNK1G2 (human); compound 0.2 µM): -0.7%
inhibition (PDGFRA (human); compound 0.02 µM): 97.3%
inhibition (PDGFRA (human); compound 0.2 µM): 105%
inhibition (PBK (human); compound 0.02 µM): -6%
inhibition (PBK (human); compound 0.2 µM): -5.2%
inhibition (EPHA6 (human); compound 0.02 µM): 16.5%
inhibition (EPHA6 (human); compound 0.2 µM): 77.8%
inhibition (CHUK (human); compound 0.02 µM): 3.4%
inhibition (CHUK (human); compound 0.2 µM): 1%
inhibition (HIPK4 (human); compound 0.02 µM): 84%
inhibition (HIPK4 (human); compound 0.2 µM): 98.4%
inhibition (TBK1 (human); compound 0.02 µM): -1.4%
inhibition (TBK1 (human); compound 0.2 µM): -1.1%
inhibition (SIK2 (human); compound 0.02 µM): -3.8%
inhibition (SIK2 (human); compound 0.2 µM): 3%
inhibition (CAMK2G (human); compound 0.02 µM): -7%
inhibition (CAMK2G (human); compound 0.2 µM): 2%
inhibition (MAPK11 (human); compound 0.02 µM): 10.4%
inhibition (MAPK11 (human); compound 0.2 µM): 62.3%
inhibition (TAOK2 (human); compound 0.02 µM): 7.3%
inhibition (TAOK2 (human); compound 0.2 µM): 48%
inhibition (ITK (human); compound 0.02 µM): -2.9%
inhibition (ITK (human); compound 0.2 µM): 7.5%
inhibition (PRKACG (human); compound 0.02 µM): -6.6%
inhibition (PRKACG (human); compound 0.2 µM): -6%
inhibition (FER (human); compound 0.02 µM): -1.8%
inhibition (FER (human); compound 0.2 µM): 13.2%
inhibition (EPHA8 (human); compound 0.02 µM): 2.5%
inhibition (EPHA8 (human); compound 0.2 µM): 37.2%
inhibition (BMX (human); compound 0.02 µM): 0.1%
inhibition (BMX (human); compound 0.2 µM): 10.4%
inhibition (EPHB2 (human); compound 0.02 µM): -2.9%
inhibition (EPHB2 (human); compound 0.2 µM): 14.4%
inhibition (IKBKB (human); compound 0.02 µM): 0.9%
inhibition (IKBKB (human); compound 0.2 µM): 1.4%
inhibition (PRKCG (human); compound 0.02 µM): -2.1%
inhibition (PRKCG (human); compound 0.2 µM): 16.8%
inhibition (INSR (human); compound 0.02 µM): -8.9%
inhibition (INSR (human); compound 0.2 µM): 2.1%
inhibition (BRSK2 (human); compound 0.02 µM): -1.1%
inhibition (BRSK2 (human); compound 0.2 µM): -1.3%
inhibition (AXL (human); compound 0.02 µM): -7.4%
inhibition (AXL (human); compound 0.2 µM): 7.1%
inhibition (AURKA (human); compound 0.02 µM): -1.5%
inhibition (AURKA (human); compound 0.2 µM): 5.4%
inhibition (MARK2 (human); compound 0.02 µM): -10.6%
inhibition (MARK2 (human); compound 0.2 µM): -9.7%
inhibition (PAK3 (human); compound 0.02 µM): -1.4%
inhibition (PAK3 (human); compound 0.2 µM): 2.1%
inhibition (PAK7 (human); compound 0.02 µM): -2.5%
inhibition (PAK7 (human); compound 0.2 µM): -1.8%
inhibition (FGFR1 (human); compound 0.02 µM): 5.3%
inhibition (FGFR1 (human); compound 0.2 µM): 49.9%
inhibition (INSRR (human); compound 0.02 µM): -6.9%
inhibition (INSRR (human); compound 0.2 µM): -3%
inhibition (ERBB2 (human); compound 0.02 µM): 0.5%
inhibition (ERBB2 (human); compound 0.2 µM): -1.7%
inhibition (MAP4K4 (human); compound 0.02 µM): -4.1%
inhibition (MAP4K4 (human); compound 0.2 µM): 6%
inhibition (EPHB3 (human); compound 0.02 µM): -2.4%
inhibition (EPHB3 (human); compound 0.2 µM): 0.9%
inhibition (PAK2 (human); compound 0.02 µM): -1.7%
inhibition (PAK2 (human); compound 0.2 µM): 0.7%
inhibition (BLK (human); compound 0.02 µM): 1%
inhibition (BLK (human); compound 0.2 µM): 6.4%

CCN(CC)CCNC(=O)c1c(C)[nH]c(/C=C2\C(=O)Nc3ccc(F)cc32)c1C
inhibition (PDGFRA (human); compound 0.2 µM): 100%
inhibition (PBK (human); compound 0.2 µM): -6.1%
inhibition (PBK (human); compound 4.0 µM): -7.6%
inhibition (CSF1R (human); compound 0.2 µM): 67.9%
inhibition (CSF1R (human); compound 4.0 µM): 98.9%
inhibition (EPHA6 (human); compound 0.2 µM): 43.4%
inhibition (EPHA6 (human); compound 4.0 µM): 92.7%
inhibition (CHUK (human); compound 0.2 µM): 3%
inhibition (CHUK (human); compound 4.0 µM): 2.9%
inhibition (HIPK4 (human); compound 0.2 µM): 67.4%
inhibition (HIPK4 (human); compound 4.0 µM): 96.8%
inhibition (TBK1 (human); compound 0.2 µM): 28.1%
inhibition (TBK1 (human); compound 4.0 µM): 87.5%
inhibition (SIK2 (human); compound 0.2 µM): 46.8%
inhibition (SIK2 (human); compound 4.0 µM): 94.5%
inhibition (CAMK2G (human); compound 0.2 µM): 49.6%
inhibition (CAMK2G (human); compound 4.0 µM): 96.2%
inhibition (MAPK11 (human); compound 0.2 µM): -1.4%
inhibition (MAPK11 (human); compound 4.0 µM): -3.1%
inhibition (TAOK2 (human); compound 0.2 µM): 3.8%
inhibition (TAOK2 (human); compound 4.0 µM): 18.6%
inhibition (ITK (human); compound 0.2 µM): 93.3%
inhibition (ITK (human); compound 4.0 µM): 101%
inhibition (PRKACG (human); compound 0.2 µM): -4.4%
inhibition (PRKACG (human); compound 4.0 µM): 28.9%
inhibition (FER (human); compound 0.2 µM): 78.8%
inhibition (FER (human); compound 4.0 µM): 102%
inhibition (EPHA8 (human); compound 0.2 µM): -0.2%
inhibition (EPHA8 (human); compound 4.0 µM): 27.7%
inhibition (BMX (human); compound 0.2 µM): -0.5%
inhibition (BMX (human); compound 4.0 µM): 22.4%
inhibition (EPHB2 (human); compound 0.2 µM): 22.2%
inhibition (EPHB2 (human); compound 4.0 µM): 79.1%
inhibition (IKBKB (human); compound 0.2 µM): -2.1%
inhibition (IKBKB (human); compound 4.0 µM): 4.2%
inhibition (PRKCG (human); compound 0.2 µM): 0.1%
inhibition (PRKCG (human); compound 4.0 µM): 38.9%
inhibition (BRSK2 (human); compound 0.2 µM): 36.7%
inhibition (BRSK2 (human); compound 4.0 µM): 85.9%
inhibition (AXL (human); compound 0.2 µM): 96.8%
inhibition (AXL (human); compound 4.0 µM): 102%
inhibition (AURKA (human); compound 0.2 µM): 31.1%
inhibition (AURKA (human); compound 4.0 µM): 87.3%
inhibition (PAK7 (human); compound 0.2 µM): 20.1%
inhibition (PAK7 (human); compound 4.0 µM): 77.7%
inhibition (DDR2 (human); compound 0.2 µM): 55.8%
inhibition (DDR2 (human); compound 4.0 µM): 98%
inhibition (FGFR1 (human); compound 0.2 µM): 52.9%
inhibition (FGFR1 (human); compound 4.0 µM): 96.2%
inhibition (INSRR (human); compound 0.2 µM): 75.7%
inhibition (INSRR (human); compound 4.0 µM): 101%
inhibition (ERBB2 (human); compound 0.2 µM): -3.2%
inhibition (ERBB2 (human); compound 4.0 µM): -2.9%
inhibition (MAP4K4 (human); compound 4.0 µM): 101%
inhibition (EPHB3 (human); compound 0.2 µM): -1.7%
inhibition (EPHB3 (human); compound 4.0 µM): 15.3%
inhibition (PAK2 (human); compound 0.2 µM): 1.8%
inhibition (PAK2 (human); compound 4.0 µM): 7.7%
inhibition (BLK (human); compound 0.2 µM): 79.2%
inhibition (BLK (human); compound 4.0 µM): 101%
